From BindingDB's records for doi:10.1007/BF00173012 (Sandoz Pharma, 1994) come the findings set out here.

*1 amine or outer side, *2 acyl side, *3 side chain or, on linkers, in order; H or OH if unused. Where a SMILES comes first, the peptide text is derived from it. Bridges are numbered along the chain shown (N, C = ends). [ ]: non-standard residue; d: D form. The star is where a group is joined. ξ: configuration not given here. X3 = C[C@@H](C(=O)[*:2])N(Cc1ccc2ccccc2c1)[*:1]; Phe(4-Cl) = N[C@@H](Cc1ccc(Cl)cc1)C(=O)O; d2Nal = N[C@H](Cc1ccc2ccccc2c1)C(=O)O; dNMeF = CN[C@H](Cc1ccccc1)C(=O)O; dThr(3ξ) = CC(O)[C@@H](N)C(=O)O; NMeA = CN[C@@H](C)C(=O)O; dNMeA = CN[C@H](C)C(=O)O; ξF = NC(Cc1ccccc1)C(=O)O; Abu = CC[C@H](N)C(=O)O; X2 = CC(O)[C@H](CO)N*; Ahp = NCCCCCCC(=O)O; Bn = c1ccc(C*)cc1; ξC = NC(CS)C(=O)O

For assay [1], the target named is T1, Somatostatin receptor type 5 (Rattus norvegicus, UniProt P30938).
T1 sequence (P30938 whole entry): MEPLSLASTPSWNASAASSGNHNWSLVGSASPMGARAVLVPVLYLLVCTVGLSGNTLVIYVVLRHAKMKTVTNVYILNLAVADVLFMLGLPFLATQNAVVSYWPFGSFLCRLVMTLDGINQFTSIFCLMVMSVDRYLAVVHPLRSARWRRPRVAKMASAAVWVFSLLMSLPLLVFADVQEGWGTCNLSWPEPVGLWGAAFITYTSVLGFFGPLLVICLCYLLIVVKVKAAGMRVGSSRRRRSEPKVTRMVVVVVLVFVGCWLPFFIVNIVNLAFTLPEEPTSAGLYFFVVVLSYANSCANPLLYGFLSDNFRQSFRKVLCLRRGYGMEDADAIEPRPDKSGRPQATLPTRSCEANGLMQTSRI

The target of assay [2] is Somatostatin receptor type 4 (Mus musculus, UniProt P49660).
Somatostatin receptor type 4, sequence (P49660 whole entry): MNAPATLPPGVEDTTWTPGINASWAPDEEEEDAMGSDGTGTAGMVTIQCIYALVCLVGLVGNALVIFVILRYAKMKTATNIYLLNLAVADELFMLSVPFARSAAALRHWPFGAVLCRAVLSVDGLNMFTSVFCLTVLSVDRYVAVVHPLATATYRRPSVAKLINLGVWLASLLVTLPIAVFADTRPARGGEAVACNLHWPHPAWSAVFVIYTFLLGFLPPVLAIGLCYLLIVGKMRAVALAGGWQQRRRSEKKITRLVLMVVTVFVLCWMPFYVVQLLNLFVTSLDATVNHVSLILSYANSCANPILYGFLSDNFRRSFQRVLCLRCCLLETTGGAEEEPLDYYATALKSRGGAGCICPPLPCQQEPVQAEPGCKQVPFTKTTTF
The target in assay [3] is Somatostatin receptor type 3 (Mus musculus, UniProt P30935).
Somatostatin receptor type 3, sequence (P30935 whole entry): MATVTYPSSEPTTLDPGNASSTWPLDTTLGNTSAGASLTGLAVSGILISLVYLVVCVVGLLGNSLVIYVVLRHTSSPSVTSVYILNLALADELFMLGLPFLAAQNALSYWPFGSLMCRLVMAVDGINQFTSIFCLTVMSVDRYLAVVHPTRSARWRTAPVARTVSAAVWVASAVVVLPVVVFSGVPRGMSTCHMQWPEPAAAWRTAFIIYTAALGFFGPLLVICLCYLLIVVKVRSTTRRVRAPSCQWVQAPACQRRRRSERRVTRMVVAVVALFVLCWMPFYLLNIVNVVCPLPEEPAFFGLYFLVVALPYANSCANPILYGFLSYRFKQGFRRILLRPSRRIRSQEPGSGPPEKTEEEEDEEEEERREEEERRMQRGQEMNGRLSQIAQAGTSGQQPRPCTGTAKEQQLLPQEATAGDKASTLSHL

Take `CC(O)[C@H](CO)NC(=O)[C@@H]1CSSCC(NC(=O)C(N)Cc2ccccc2)C(=O)N[C@H](Cc2ccccc2)C(=O)N[C@H](Cc2c[nH]c3ccccc23)C(=O)N[C@H](CCCCN)C(=O)N[C@H](C(C)O)C(=O)N1` (some centres not stated) (H-[ξF][ξC][dF][dW][dK][dThr(3ξ)]C-X2; disulfide 2-7): the Ki (commonly a dissociation constant, usually derived from enzyme kinetics or from competition with a known ligand) in assay [1] came out at 0.57 nM. In the case of `C[C@@H](O)[C@@H]1NC(=O)[C@H](CCCCN)NC(=O)[C@@H](Cc2c[nH]c3ccccc23)NC(=O)[C@H](Cc2ccccc2)NC(=O)[C@@H]2CCCN2C(=O)[C@H](Cc2ccccc2)NC1=O` (cyclo(PF[dW]KTF)), the Ki worked out at 1000 nM in assay [2] and 3.23 nM in assay [1].

`CC(C)[C@@H]1NC(=O)[C@H](CCCCN)NC(=O)[C@@H](Cc2c[nH]c3ccccc23)NC(=O)[C@H](Cc2ccc(O)cc2)NC(=O)[C@@H](NC(=O)[C@H](N)Cc2ccc3ccccc3c2)CSSC[C@@H](C(=O)N[C@H](C(N)=O)[C@@H](C)O)NC1=O` [3-(2-Naphtyl)-D-Ala-L-Cys(1)-L-Tyr-D-Trp-L-Lys-L-Val-L-Cys(1)-L-Thr-NH2] registered a Ki in assay [1] of 0.1 nM.

For `CC[C@@H]1NC(=O)[C@H](CCCCN)NC(=O)[C@@H](Cc2c[nH]c3ccccc23)NC(=O)[C@H](Cc2ccc(O)cc2)NC(=O)[C@H](C)N(C)C(=O)[C@H](Cc2ccccc2)NC1=O` [BIM-23027] (cyclo([Abu]F[NMeA]Y[dW]K)), the Ki in assay [2] is 1000 nM; in assay [1], 6.16 nM.

Take `CC(C)[C@H](NC(=O)[C@H](CCCCN)NC(=O)[C@@H](Cc1c[nH]c2ccccc12)NC(=O)[C@H](Cc1ccc(O)cc1)NC(=O)[C@H](Cc1ccccc1)NC(=O)[C@@H](N)Cc1ccccc1)C(=O)N[C@@H](Cc1ccccc1)C(=O)N[C@H](C(N)=O)[C@@H](C)O` [BIM-23058] (H-FFY[dW]KVFT-NH2): the affinity in assay [1] corresponds to a Ki of 1.2 nM.

In the case of `CC(C)[C@H](NC(=O)[C@H](CCCCN)NC(=O)[C@@H](Cc1c[nH]c2ccccc12)NC(=O)[C@H](Cc1ccc(O)cc1)NC(=O)[C@H](Cc1ccccc1)NC(=O)[C@H](N)Cc1ccccc1)C(=O)N[C@@H](Cc1ccccc1)C(=O)N[C@H](C(N)=O)[C@@H](C)O` [BIM-23058] (H-[dF]FY[dW]KVFT-NH2), the Ki is 0.03 nM in assay [3] and 77.6 nM in assay [2]. In assay [1], `CC(C)C1NC(=O)C(CCCCN)NC(=O)C(Cc2c[nH]c3ccccc23)NC(=O)C(Cc2ccc(O)cc2)NC(=O)C(NC(=O)C(N)Cc2ccccc2)CSSCC(C(=O)NC(Cc2c[nH]c3ccccc23)C(N)=O)NC1=O` (configuration not stated) [CAS_71306] (H-FCYWKVCW-NH2; disulfide 2-7; configuration not given here) registered a Ki of 1.58 nM.

With `C[C@@H](O)[C@H](NC(=O)[C@H](Cc1ccccc1)NC(=O)[C@@H](NC(=O)[C@H](CCCCN)NC(=O)[C@@H](Cc1c[nH]c2ccccc12)NC(=O)[C@H](Cc1ccccc1)NC(=O)[C@H](Cc1ccccc1)NC(=O)[C@H](N)Cc1ccccc1)[C@@H](C)O)C(N)=O` [CAS_133073-82-2] (H-[dF]FF[dW]KTFT-NH2), the Ki is 0.41 nM in assay [3] and 18.2 nM in assay [2]. `CC(C)C1NC(=O)C(CCCCN)NC(=O)C(Cc2c[nH]c3ccccc23)NC(=O)C(Cc2ccc(O)cc2)NC(=O)C(C)N(C)C(=O)C(Cc2ccccc2)NC1=O` (configuration not stated) [CAS_3086456]: the inhibition constant (Ki) in assay [1] is 5.49 nM. Take `CC(C)[C@@H]1NC(=O)[C@H](CCCCN)NC(=O)[C@@H](Cc2c[nH]c3ccccc23)NC(=O)[C@H](Cc2ccc(O)cc2)NC(=O)[C@H](C)N(C)C(=O)[C@H](Cc2ccccc2)NC1=O` [CAS_3086456]: the affinity in assay [2], expressed as Ki, was 1000 nM. The compound `C[C@H](O)[C@@H]1NC(=O)C(CCCCN)NC(=O)[C@@H](Cc2c[nH]c3ccccc23)NC(=O)C(Cc2ccccc2)NC(=O)C(Cc2ccccc2)NC(=O)C(CC(N)=O)NC(=O)C(CCCCN)NC(=O)CCCCC[C@H](C(=O)O)NC(=O)[C@@H](CO)NC(=O)[C@H]([C@H](C)O)NC(=O)[C@@H](Cc2ccc(O)cc2)NC1=O` (some centres not stated) [CGP-23996] came in with an inhibition constant Ki in assay [1] of 4.67 nM. On the same count and under the same terms, in the case of `CC(C)[C@H](NC(=O)[C@H](CCCCN)NC(=O)[C@@H](Cc1c[nH]c2ccccc12)NC(=O)[C@H](Cc1ccc(O)cc1)NC(=O)[C@H](C)NCc1ccc2ccccc2c1)C(=O)N[C@@H](C)C(=O)N[C@H](C(N)=O)[C@@H](C)O` [D-Nal-Ala-Tyr-D-Trp-Lys-Val-Ala-Thr-NH2] (H-[X3]Y[dW]KVAT-NH2) it was 145 nM. For the compound `CC(C)[C@H](NC(=O)[C@H](CCCCN)NC(=O)[C@@H](Cc1c[nH]c2ccccc12)NC(=O)[C@H](Cc1ccc(O)cc1)NC(=O)[C@H](C)NC(=O)[C@H](N)Cc1ccc2ccccc2c1)C(=O)N[C@@H](C)C(=O)N[C@H](C(N)=O)[C@@H](C)O` [D-Nal-Ala-Tyr-D-Trp-Lys-Val-Ala-Thr-NH2] (H-[d2Nal]AY[dW]KVAT-NH2), affinity in assay [2] was put at a Ki of 1000 nM. In the case of `CC(CO)C(NC(=O)C1NC(=O)N[C@@H](Cc2ccc(O)cc2)C(=O)N[C@H](Cc2c[nH]c3ccccc23)C(=O)N[C@@H](CCCCN)C(=O)N[C@@H](C(C)CO)C(=O)NC(C(=O)N[C@@H](Cc2ccc3ccccc3c2)C(N)=O)SS1)C(N)=O` (stereo partly drawn) [D-Nal-c[Cys-Tyr-D-Trp-Lys-Thr-Cys]-Thr-NH2], affinity in assay [1] was put at a Ki of 0.07 nM. Consider `CC(C)[C@H](NC(=O)[C@H](CCCCN)NC(=O)[C@@H](Cc1c[nH]c2ccccc12)NC(=O)[C@H](Cc1ccc(O)cc1)NC(=O)[C@H](C)NC(=O)[C@H](N)Cc1ccccc1)C(=O)N[C@@H](C)C(=O)N[C@H](Cc1ccc2ccccc2c1)C(N)=O` [D-Phe-AIa-Tyr-D-Trp-Lys-Val-Ala-D-Nal-NH2] (H-[dF]AY[dW]KVA[d2Nal]-NH2), for which the Ki in assay [2] was determined as 1000 nM; in assay [1] it was 5.88 nM.

As for `CC[C@@H]1NC(=O)[C@H](CCCCN)NC(=O)[C@@H](Cc2c[nH]c3ccccc23)NC(=O)[C@H](Cc2ccc(O)cc2)NC(=O)[C@@H](NC(=O)[C@H](N)Cc2ccccc2)CSSC[C@@H](C(=O)N[C@H](C(N)=O)[C@@H](C)O)NC1=O` [D-Phe-L-Cys(1)-L-Tyr-D-Trp-L-Lys-L-Abu-L-Cys(1)-L-Thr-NH2], the Ki in assay [1] was found to be 0.18 nM. Take `CC(C)[C@H](NC(=O)[C@H](CCCCN)NC(=O)[C@@H](Cc1c[nH]c2ccccc12)NC(=O)[C@H](Cc1ccc(O)cc1)NC(=O)[C@H](Cc1ccccc1)NC(=O)[C@H](N)Cc1ccccc1)C(=O)N[C@@H](Cc1ccccc1)C(=O)N[C@H](Cc1ccccc1)C(N)=O` [D-Phe-Phe-Tyr-D-Trp-Lys-Val-Phe-D-Phe-NH2] (H-[dF]FY[dW]KVF[dF]-NH2): the Ki amounted to 251 nM in assay [2] and 3.31 nM in assay [1]. In the same order, the values of `C[C@@H](O)[C@@H]1NC(=O)[C@H](CCCCN)NC(=O)[C@@H](Cc2c[nH]c3ccccc23)NC(=O)[C@H](Cc2c[nH]c3ccccc23)NC(=O)[C@H](Cc2ccccc2)NC(=O)CCCCCCNC(=O)[C@H](Cc2ccccc2)NC1=O` [L-362855] (cyclo([Ahp]FW[dW]KTF)) are 63.1 nM and 0.01 nM. As to `C[C@@H](O)[C@@H]1NC(=O)[C@H](CCCCN)NC(=O)[C@@H](Cc2c[nH]c3ccccc23)NC(=O)[C@H](Cc2ccc(Cl)cc2)NC(=O)[C@H](Cc2ccccc2)NC(=O)CCCCCCNC(=O)[C@H](Cc2ccccc2)NC1=O` [L-362862] (cyclo([Ahp]F[Phe(4-Cl)][dW]KTF)), the affinity in assay [2] corresponds to a Ki of 43.6 nM. For the compound `C[C@@H](O)[C@@H]1NC(=O)[C@H](CCCCN)NC(=O)[C@@H](Cc2c[nH]c3ccccc23)NC(=O)[C@H](Cc2ccccc2)NC(=O)[C@H](Cc2ccc(Cl)cc2)NC(=O)CCCCCCNC(=O)[C@H](Cc2ccccc2)NC1=O` [L-362862] (cyclo([Ahp][Phe(4-Cl)]F[dW]KTF)), the affinity in assay [1], expressed as Ki, was 0.46 nM. Regarding `CSCC[C@H](NC(=O)[C@H](C)NC(=O)[C@@H]1CCCN1C(=O)[C@H](CC(N)=O)NC(=O)[C@H](CO)NC(=O)[C@H](CC(N)=O)NC(=O)[C@H](C)NC(=O)[C@@H](N)CO)C(=O)N[C@@H](C)C(=O)N1CCC[C@H]1C(=O)N[C@@H](CCCNC(=N)N)C(=O)N[C@@H](CCC(=O)O)C(=O)N[C@@H](CCCNC(=N)N)C(=O)N[C@@H](CCCCN)C(=O)N[C@@H](C)C(=O)NCC(=O)N[C@H]1CSSC[C@@H](C(=O)O)NC(=O)[C@H](CO)NC(=O)[C@H]([C@@H](C)O)NC(=O)[C@H](Cc2ccccc2)NC(=O)[C@H]([C@@H](C)O)NC(=O)[C@H](CCCCN)NC(=O)[C@H](Cc2c[nH]c3ccccc23)NC(=O)[C@H](Cc2ccccc2)NC(=O)[C@H](Cc2ccccc2)NC(=O)[C@H](CC(N)=O)NC(=O)[C@H](CCCCN)NC1=O` [L-Ser-L-Ala-L-Asn-L-Ser-L-Asn-L-Pro-L-Ala-L-Met-L-Ala-L-Pro-L-Arg-L-Glu-L-Arg-L-Lys-L-Ala-Gly-L-Cys(1)-L-Lys-L-Asn-L-Phe-L-Phe-L-Trp-L-Lys-L-Thr-L-Phe-L-Thr-L-Ser-L-Cys(1)-OH], in assay [2], the affinity corresponds to a Ki of 0.28 nM.

For `C[C@H](O)[C@H]1NC(=O)[C@H](CCCCN)NC(=O)[C@@H](Cc2c[nH]c3ccccc23)NC(=O)[C@@H](Cc2ccccc2)NC(=O)[C@@H](C)N(C)C(=O)[C@@H](Cc2ccccc2)N(C)C1=O` [N-Methylcyclo(D-Ala-D-Phe-D-Trp-L-Lys-D-Thr-N-methyl-D-Phe-)] (cyclo(K[dT][dNMeF][dNMeA][dF][dW])), the Ki in assay [2] turned out to be 1000 nM; in assay [1], 407 nM. For the compound `C[C@@H](Oc1ccccc1)[C@@H]1NC(=O)[C@H](CCCCN)NC(=O)[C@@H](Cc2c[nH]c3ccccc23)NC(=O)[C@H](Cc2ccccc2)NCCCCCCNC1=O` [c[Aha-Phe-D-Trp-Lys-Thr(Bzl)]], the Ki in assay [1] is 51.3 nM. Regarding `C[C@@H](OCc1ccccc1)[C@@H]1NC(=O)[C@H](CCCCN)NC(=O)[C@@H](Cc2c[nH]c3ccccc23)NC(=O)[C@H](Cc2ccccc2)NC(=O)CCCCCCNC1=O` [c[Aha-Phe-D-Trp-Lys-Thr(Bzl)]] (cyclo([Ahp]F[dW]KT(Bn))), the affinity in assay [2], expressed as Ki, was 1000 nM.
